Literature values, collected in patent EP2367539B1, “NOVEL COMPOSITION FOR TREATMENT OF ESSENTIAL THROMBOCYTHEMIA” (AOP Orphan Pharmaceuticals AG, priority 2008, dated 2010).

Experiments:
PDE 3 [1] = conditions: compared with anagrelide
PDE 3 [2] = system: PDE 3

| SMILES | potency as an inhibitor of PDE 3 (PDE 3 [1]) | platelet reduction and PDE 3 inhibitory activity (PDE 3 [2]) |
| --- | --- | --- |
| O=C1NC2=Nc3ccc(Cl)c(Cl)c3CN2C1O (centres unmarked) [3-hydroxyanagrelide] | considerably more potent than anagrelide |  |
| NC1=Nc2ccc(Cl)c(Cl)c2CN1 [RL 603, 2-amino-5,6-dichloro-3,4-dihydroquinazolone] |  | lacks these activities |
